From patent US20060069132A1, “Azolecarboxamide herbicides” (priority 2004, published 2006)

Key:
barnyardgrass [1] = assay: Test B pre-/postemergence herbicide test; assay type: in vivo, Echinochloa crus-galli; details: for Plant response rating (0 to 100 scale), Barnyardgrass: 0 is no effect, preemergence
In short: (§1)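 Greenhouse pot assay with simultaneous preemergence (treated seed) and postemergence (2–18 cm seedlings) applications of surfactant-containing, non-phytotoxic solvent formulations. Response scored visually 13–15 days later on a 0–100 scale, 100 meaning complete control.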

Surinam grass = assay: Test B pre-/postemergence herbicide test; assay type: in vivo, Urochloa decumbens; details: for Plant response rating (0 to 100 scale), Surinam Grass: 0 is no effect, 100 is complete control, preemergence
In short: (§2)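 Pre: seeds sown, then sprayed. Post: 1–4-leaf plants (2–18 cm) sprayed at the same time. Paddy: flooded, treated at 2-leaf stage. Formulation: non-phytotoxic solvent with surfactant. Greenhouse 13–15 days; visual 0–100 score relative to controls.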

cocklebur = assay: Test B pre-/postemergence herbicide test; assay type: in vivo, Xanthium strumarium; details: for Plant response rating (0 to 100 scale), Cocklebur: 0 is no effect, preemergence
In short: as §1

corn = assay: Test B pre-/postemergence herbicide test; assay type: in vivo, Zea mays; details: for Plant response rating (0 to 100 scale), Corn: 0 is no effect, preemergence
In short: as §2

large crabgrass = assay: Test B pre-/postemergence herbicide test; assay type: in vivo, Digitaria sanguinalis; details: for Plant response rating (0 to 100 scale), Crabgrass, Large: 0 is no effect, preemergence
In short: as §2

giant foxtail = assay: Test B pre-/postemergence herbicide test; assay type: in vivo, Setaria faberi; details: for Plant response rating (0 to 100 scale), Foxtail, Giant: 0 is no effect, preemergence
In short: as §2

lambsquarters = assay: Test B pre-/postemergence herbicide test; assay type: in vivo, Chenopodium album; details: for Plant response rating (0 to 100 scale), Lambsquarters: 0 is no effect, 100 is complete control, preemergence
In short: as §2

morningglory = assay: Test B pre-/postemergence herbicide test; assay type: in vivo, Ipomoea coccinea; details: for Plant response rating (0 to 100 scale), Morningglory: 0 is no effect, 100 is complete control, preemergence
In short: as §1

pigweed = assay: Test B pre-/postemergence herbicide test; assay type: in vivo, Amaranthus retroflexus; details: for Plant response rating (0 to 100 scale), Pigweed: 0 is no effect, 100 is complete control, preemergence
In short: as §2

velvetleaf = assay: Test B pre-/postemergence herbicide test; assay type: in vivo, Abutilon theophrasti; details: for Plant response rating (0 to 100 scale), Velvetleaf: 0 is no effect, 100 is complete control, preemergence
In short: as §2

blackgrass = assay: Test B postemergence herbicide test; assay type: in vivo, Alopecurus myosuroides
In short: (§3)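 Greenhouse test; postemergence application to plants at 1–4 leaves (2–18 cm); paddy species at 2 leaves; evaluated visually vs controls at 13–15 days; scale 0–100 (100 = complete control).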

wheat = assay: Test B postemergence herbicide test; assay type: in vivo, Triticum aestivum; design: key to Wheat plant response rating: 0 = no effect, 100 = complete control
In short: as §3

wild oat = assay: Test B postemergence herbicide test; assay type: in vivo, Avena fatua
In short: as §3

rice = assay: Test B flooded paddy test; assay type: in vivo, Oryza sativa; details: 1000 g ai/ha, scale 0 to 100 (0 no effect, 100 complete control)
In short: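 Plants grow to 1- to 4-leaf stage (2–18 cm) for postemergence spraying, or to 2-leaf stage for the paddy test. Formulated compound is applied. Greenhouse holding lasts 13–15 days. Response is scored visually relative to controls, 0 no effect to 100 complete control; a dash means no result.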

[2] = system: small flower umbrella sedge; assay: Test B flooded paddy test; assay type: in vivo, Cyperus difformis; details: 1000 g ai/ha, scale 0 to 100 (0 no effect, 100 complete control)
In short: as §3

ducksalad = assay: Test B flooded paddy test; assay type: in vivo, Heteranthera limosa; details: 1000 g ai/ha, scale 0 to 100 (0 no effect, 100 complete control)
In short: as §3

barnyardgrass [3] = assay: Test B flooded paddy test; assay type: in vivo, Echinochloa crus-galli; details: 1000 g ai/ha, scale 0 to 100 (0 no effect, 100 complete control)
In short: as §3

[4] = 125 g ai/ha, 100 is complete control
[5] = 125 g ai/ha, visual rating, scale 0 (no effect) to 100 (complete control), postemergence
[6] = postemergence, 500 g ai/ha, scale 0 to 100, 0 is no effect, 100 is complete control
[7] = Postemergence, 500 g ai/ha, scale 0 (no effect) to 100 (complete control)
[8] = 500 g ai/ha, scale 0 to 100, 0 no effect, 100 complete control, preemergence
[9] = Postemergence, 250 g ai/ha, scale 0 (no effect) to 100 (complete control)
[10] = postemergence, 62 g ai/ha, scale 0 to 100

Compound: CCc1nn(C(C)(C)C)nc1C(=O)Nc1cc(C(=O)N2CCCCC2)ccc1F [Compound 381]
- Plant response rating (0 to 100 scale), Barnyardgrass (barnyardgrass [1]; [4]): 10
- Barnyardgrass plant response rating (barnyardgrass [1]; [5]): 0
- Barnyardgrass plant response rating (barnyardgrass [1]; [6]): 0
- Plant response rating (0 to 100 scale), Surinam Grass (Surinam grass; 125 g ai/ha): 20
- Surinam Grass plant response rating (Surinam grass; [5]): 10
- Surinam Grass plant response rating (Surinam grass; [7]): 40
- Plant response rating (0 to 100 scale), Cocklebur (cocklebur; [4]): 0
- Cocklebur plant response rating (cocklebur; [5]): 20
- Cocklebur plant response rating (cocklebur; [6]): 20
- Plant response rating (0 to 100 scale), Corn (corn; [4]): 0
- Corn plant response rating (corn; [5]): 0
- Corn plant response rating (corn; [6]): 10
- Plant response rating (0 to 100 scale), Crabgrass, Large (large crabgrass; [4]): 70
- Crabgrass, Large plant response rating (large crabgrass; [5]): 10
- Crabgrass, Large plant response rating (large crabgrass; [6]): 20
- Plant response rating (0 to 100 scale), Foxtail, Giant (giant foxtail; [4]): 10
- Foxtail, Giant plant response rating (giant foxtail; [5]): 10
- Foxtail, Giant plant response rating (giant foxtail; [6]): 20
- Plant response rating (0 to 100 scale), Lambsquarters (lambsquarters; 125 g ai/ha): 40
- Lambsquarters plant response rating (lambsquarters; [5]): 70
- Lambsquarters plant response rating (lambsquarters; [7]): 80
- Plant response rating (0 to 100 scale), Morningglory (morningglory; 125 g ai/ha): 0
- Morningglory plant response rating (morningglory; [5]): 20
- Morningglory plant response rating (morningglory; [7]): 80
- Plant response rating (0 to 100 scale), Pigweed (pigweed; 125 g ai/ha): 0
- Pigweed plant response rating (pigweed; [5]): 20
- Pigweed plant response rating (pigweed; [7]): 30
- Plant response rating (0 to 100 scale), Velvetleaf (velvetleaf; 125 g ai/ha): 10
- Velvetleaf plant response rating (velvetleaf; [5]): 10
- Velvetleaf plant response rating (velvetleaf; [7]): 40
- Blackgrass plant response rating (blackgrass; [5]): 20
- Blackgrass plant response rating (blackgrass; [6]): 30
- Wheat plant response rating (wheat; [5]): 10
- Wheat plant response rating (wheat; [8]): 20
- Wheat plant response rating (wheat; [7]): 20
- Oat, Wild plant response rating (wild oat; [5]): 10
- Oat, Wild plant response rating (wild oat; [7]): 20
- Rice plant response rating (rice): 60
- Sedge, Umbrella plant response rating [2]: 70
- Ducksalad plant response rating (ducksalad): 70
- Barnyardgrass plant response rating (barnyardgrass [3]): 10

Compound: CCOC(=O)c1ccc(F)c(NC(=O)c2cc(CC(C)C)nn2CC)c1 [Compound 72]
- Barnyardgrass plant response rating (barnyardgrass [1]; [9]): 0
- Barnyardgrass plant response rating (barnyardgrass [1]; [10]): 0
- Surinam Grass plant response rating (Surinam grass; [9]): 0
- Surinam Grass plant response rating (Surinam grass; [10]): 0
- Cocklebur plant response rating (cocklebur; [9]): 0
- Cocklebur plant response rating (cocklebur; [10]): 0
- Corn plant response rating (corn; [9]): 0
- Corn plant response rating (corn; [10]): 0
- Crabgrass, Large plant response rating (large crabgrass; [9]): 0
- Crabgrass, Large plant response rating (large crabgrass; [10]): 0
- Foxtail, Giant plant response rating (giant foxtail; [9]): 0
- Foxtail, Giant plant response rating (giant foxtail; [10]): 0
- Lambsquarters plant response rating (lambsquarters; [9]): 10
- Lambsquarters plant response rating (lambsquarters; [10]): 0
- Morningglory plant response rating (morningglory; [9]): 0
- Morningglory plant response rating (morningglory; [10]): 0
- Pigweed plant response rating (pigweed; [9]): 0
- Pigweed plant response rating (pigweed; [10]): 0
- Velvetleaf plant response rating (velvetleaf; [9]): 0
- Velvetleaf plant response rating (velvetleaf; [10]): 0
- Blackgrass plant response rating (blackgrass; [9]): 50
- Blackgrass plant response rating (blackgrass; [10]): 40
- Wheat plant response rating (wheat; 250 g ai/ha, scale 0 to 100, 0 no effect, 100 complete control, preemergence): 0
- Wheat plant response rating (wheat; [9]): 10
- Wheat plant response rating (wheat; [10]): 10
- Oat, Wild plant response rating (wild oat; [9]): 30
- Oat, Wild plant response rating (wild oat; [10]): 20
- Rice plant response rating (rice; visual rating, 13 to 15 days): 0
- Sedge, Umbrella plant response rating ([2]; visual rating, 13 to 15 days): 0
- Ducksalad plant response rating (ducksalad; visual rating, 13 to 15 days): 0
- Barnyardgrass plant response rating (barnyardgrass [3]; visual rating, 13 to 15 days): 0

Compound: C=CCN(CC=C)C(=O)c1cccc(NC(=O)c2nn(C(C)C)nc2CC)c1 [Compound 390]
- Plant response rating (0 to 100 scale), Barnyardgrass (barnyardgrass [1]; [4]): 0
- Barnyardgrass plant response rating (barnyardgrass [1]; [5]): 0
- Barnyardgrass plant response rating (barnyardgrass [1]; [7]): 10
- Plant response rating (0 to 100 scale), Surinam Grass (Surinam grass; 125 g ai/ha): 0
- Surinam Grass plant response rating (Surinam grass; [5]): 0
- Surinam Grass plant response rating (Surinam grass; [7]): 10
- Plant response rating (0 to 100 scale), Cocklebur (cocklebur; [4]): 0
- Cocklebur plant response rating (cocklebur; [5]): 20
- Cocklebur plant response rating (cocklebur; [7]): 20
- Plant response rating (0 to 100 scale), Corn (corn; [4]): 0
- Corn plant response rating (corn; [5]): 0
- Corn plant response rating (corn; [7]): 20
- Plant response rating (0 to 100 scale), Crabgrass, Large (large crabgrass; [4]): 10
- Crabgrass, Large plant response rating (large crabgrass; [5]): 10
- Crabgrass, Large plant response rating (large crabgrass; [7]): 20
- Plant response rating (0 to 100 scale), Foxtail, Giant (giant foxtail; [4]): 0
- Foxtail, Giant plant response rating (giant foxtail; [5]): 10
- Foxtail, Giant plant response rating (giant foxtail; [7]): 30
- Plant response rating (0 to 100 scale), Lambsquarters (lambsquarters; 125 g ai/ha): 30
- Lambsquarters plant response rating (lambsquarters; [5]): 60
- Lambsquarters plant response rating (lambsquarters; [7]): 60
- Plant response rating (0 to 100 scale), Morningglory (morningglory; 125 g ai/ha): 0
- Morningglory plant response rating (morningglory; [5]): 0
- Morningglory plant response rating (morningglory; [7]): 40
- Plant response rating (0 to 100 scale), Pigweed (pigweed; 125 g ai/ha): 0
- Pigweed plant response rating (pigweed; [5]): 50
- Pigweed plant response rating (pigweed; [7]): 60
- Plant response rating (0 to 100 scale), Velvetleaf (velvetleaf; 125 g ai/ha): 0
- Velvetleaf plant response rating (velvetleaf; [5]): 0
- Velvetleaf plant response rating (velvetleaf; [7]): 20
- Blackgrass plant response rating (blackgrass; [5]): 0
- Blackgrass plant response rating (blackgrass; [7]): 10
- Wheat plant response rating (wheat; [5]): 0
- Wheat plant response rating (wheat; [8]): 10
- Wheat plant response rating (wheat; [7]): 0
- Oat, Wild plant response rating (wild oat; [5]): 0
- Oat, Wild plant response rating (wild oat; [7]): 10
- Rice plant response rating (rice): 30
- Sedge, Umbrella plant response rating [2]: 60
- Ducksalad plant response rating (ducksalad): 40
- Barnyardgrass plant response rating (barnyardgrass [3]): 0
